Data taken from ChEMBL document CHEMBL1201862, “PubChem BioAssay data set” (2004).
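Following 48 hours of exposure in 96-well plates, responses at five concentrations were used to interpolate endpoints linearly. The concentration for 50% growth inhibition is given as GI50.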 Active and inactive are the calls of the source. Rule as the data show it: active = GI50 up to about 1.1 µM and inactive = higher.

Experiments:
Experiment in all cases: DTP human tumour cell line panel, 48 h
[1] = test system: UACC-257
[2] = test system: IGROV-1
[3] = test system: SK-MEL-5
[4] = test system: NCI-H226
[5] = test system: U-251
[6] = test system: HCT-116
[7] = test system: BT-549
[8] = test system: K562
[9] = test system: SW-620
[10] = test system: Malme-3M
[11] = test system: A498
[12] = test system: Hs-578T
[13] = test system: NCI-H23
[14] = test system: MDA-MB-231
[15] = test system: 786-0
[16] = test system: SNB-75
[17] = test system: COLO 205
[18] = test system: OVCAR-8
[19] = test system: KM12
[20] = test system: NCI-H522

| Compound | GI50 [1] | GI50 [2] | GI50 [3] | GI50 [4] | GI50 [5] | GI50 [6] | GI50 [7] | GI50 [8] | GI50 [9] | GI50 [10] | GI50 [11] | GI50 [12] | GI50 [13] | GI50 [14] | GI50 [15] | GI50 [16] | GI50 [17] | GI50 [18] | GI50 [19] | GI50 [20] |
| --- | --- | --- | --- | --- | --- | --- | --- | --- | --- | --- | --- | --- | --- | --- | --- | --- | --- | --- | --- | --- |
| COC(=O)C1CC2C=CC1N(C(=O)OCc1ccccc1)C2 (stereo not given) | > 100 µM (inactive) | > 100 µM (inactive) | 92 µM (inactive) | > 100 µM (inactive) | > 100 µM (inactive) | > 100 µM (inactive) | > 100 µM (inactive) | > 100 µM (inactive) | > 100 µM (inactive) | 26 µM (inactive) | > 100 µM (inactive) | > 100 µM (inactive) | > 100 µM (inactive) | > 100 µM (inactive) | > 100 µM (inactive) | > 100 µM (inactive) | > 100 µM (inactive) | > 100 µM (inactive) | > 100 µM (inactive) | 0.82 µM (active) |
| O=c1c2ccc(Cl)cc2oc2c(CSc3ccccc3)cccc12 | > 57.9 µM (inactive) | > 24 µM (inactive) | > 46.6 µM (inactive) | 46.3 µM (inactive) | 39.9 µM (inactive) | 28.2 µM (inactive) | > 43 µM (inactive) | 15.3 µM (inactive) | 21.5 µM (inactive) | 14.2 µM (inactive) | 25.7 µM (inactive) | > 100 µM (inactive) | 28.4 µM (inactive) | > 63 µM (inactive) | > 61.5 µM (inactive) | > 33.2 µM (inactive) | > 70 µM (inactive) | 62.7 µM (inactive) | 21.6 µM (inactive) | > 32.5 µM (inactive) |
| CCN1CCC(O)(/C=C/c2ccc(C)cc2)C(C(=O)/C=C/c2ccc(C)cc2)C1 (stereo not given) | 12.5 µM (inactive) | 6.55 µM (inactive) | 3.43 µM (inactive) | 15.5 µM (inactive) | 3.12 µM (inactive) | 1.91 µM (inactive) | 3.5 µM (inactive) | 2.36 µM (inactive) | 1.75 µM (inactive) | 6.75 µM (inactive) | 10.3 µM (inactive) | 1.86 µM (inactive) | 6.35 µM (inactive) | 2.07 µM (inactive) | 2.08 µM (inactive) | 9.79 µM (inactive) | 1.75 µM (inactive) | 2.81 µM (inactive) | 2.19 µM (inactive) | 1.7 µM (inactive) |
| CC(=C(C(=O)O)C(=O)O)c1cc(-c2cccs2)cc(-c2ccc(Cl)cc2)c1O | 16.7 µM (inactive) | 15.2 µM (inactive) | 19.3 µM (inactive) | 21.2 µM (inactive) | 14.3 µM (inactive) | 13.8 µM (inactive) | 15.7 µM (inactive) | 5.3 µM (inactive) | 18.7 µM (inactive) | 21.6 µM (inactive) | 16 µM (inactive) | > 42.7 µM (inactive) | 17.3 µM (inactive) | 18.2 µM (inactive) | 15.2 µM (inactive) | 18 µM (inactive) | 22.4 µM (inactive) | 19.2 µM (inactive) | 9.04 µM (inactive) | 14.3 µM (inactive) |
| COc1ccc(N2C(=O)C3c4[nH]c5ccc(OCc6ccccc6)cc5c4C4CCC(C(C)C)CC4C3C2=O)cc1 (stereo not given) | > 100 µM (inactive) | > 39.6 µM (inactive) | > 100 µM (inactive) | 14.2 µM (inactive) | 10.8 µM (inactive) | > 45.8 µM (inactive) | 28.6 µM (inactive) | 16.7 µM (inactive) | > 100 µM (inactive) | 21 µM (inactive) | 5.71 µM (inactive) | 2.29 µM (inactive) | 17.4 µM (inactive) | 10.5 µM (inactive) | 8.11 µM (inactive) | 2.23 µM (inactive) | > 100 µM (inactive) | 15.6 µM (inactive) | > 100 µM (inactive) | 12.3 µM (inactive) |
| Cc1ccc(S(=O)(=O)n2ccc(-c3ccc4ccn(S(=O)(=O)c5ccc(C)cc5)c4c3)c2)cc1 | > 100 µM (inactive) | > 100 µM (inactive) | > 100 µM (inactive) | > 100 µM (inactive) | > 100 µM (inactive) | > 100 µM (inactive) | > 100 µM (inactive) | > 100 µM (inactive) | > 100 µM (inactive) | > 100 µM (inactive) | > 100 µM (inactive) | 27.9 µM (inactive) | > 100 µM (inactive) | > 100 µM (inactive) | > 100 µM (inactive) | 94.2 µM (inactive) | > 100 µM (inactive) | > 100 µM (inactive) | > 100 µM (inactive) | > 100 µM (inactive) |
| CC(=O)/C(=C(/Br)I)c1ccccc1 | 12.6 µM (inactive) | 10.9 µM (inactive) | 7.71 µM (inactive) | 7.45 µM (inactive) | 13.1 µM (inactive) | 4.52 µM (inactive) | 1.97 µM (inactive) | 2.82 µM (inactive) | 3.15 µM (inactive) | 10.9 µM (inactive) | 14.5 µM (inactive) | 30.7 µM (inactive) | 4.13 µM (inactive) | 13.2 µM (inactive) | 9.04 µM (inactive) | 14.2 µM (inactive) | 13.6 µM (inactive) | 11.6 µM (inactive) | 14.8 µM (inactive) | 0.442 µM (active) |
